Literature values as cited in US8324425B2, “Method for producing bicyclic γ-amino acid derivative” (Daiichi Sankyo Company, Limited, priority 2009, dated 2012).

Experiments:
[1] = according to patients' own evaluation; Non Patent Literature 3
[2] = according to patients' own evaluation; Non Patent Literature 4

NCC1(CC(=O)O)CCCCC1 [gabapentine]
efficacy in the treatment of postherpetic neuralgia [1]: approximately 60%

CC(C)C[C@H](CN)CC(=O)O [pregabalin]
efficacy in the treatment of painful diabetic neuropathy [2]: approximately 50%
